Like-named read-outs stand apart in the source and are kept apart here.
What was measured:
[1] = tested on: normal monkey kidney epithelial cell line CV-1; assay: Colony formation assay, normal monkey kidney epithelial cells CV-1; conditions: for IC50: Primates, Epithelial cell; for CV-1 (IC50): Table III;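 as to all read-outs here: colonies visualized by crystal violet staining, incubation at 37 °C, IC50 relative to untreated wells given culture medium alone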
Description: Human colon carcinoma cell line CX-1 or normal monkey kidney epithelial cell line CV-1 was chosen as representatives of cancer cells and normal cells, respectively. […] CX-1 cells (2,000 cells/well) and CV-1 cells (1,000 cells/well) were plated in 24-well plastic culture plates. […] The control received culture media only. Cells were treated with compounds of General Formulas (1) to (6) at 37° C. for 24 hours. After rinsing with fresh culture medium three times, the cells were further incubated at 37° C. for 7 to 10 days. Cell colonies were fixed and stained with 2% crystal violet in 70% ethanol for 10 minutes and rinsed in water. […] The selectivity is defined as the ratio of IC50 for CV-1 and IC50 for CX-1.

[2] = tested on: human colon carcinoma cell line CX-1; assay: Colony formation assay, human colon carcinoma CX-1; type: cell-based; conditions: for IC50: Homo sapiens, Colon carcinoma cell; for IC50 / CX-1 (IC50): 24 h treatment, colony count after 7 to 10 days; for Selectivity (ratio of IC50 for CV-1 and IC50 for CX-1): CV-1/CX-1
[3] = read-out: CV-1 (IC50), Table III, 24 h treatment, colony count after 7 to 10 days
[4] = Table III, read-out: CX-1 (IC50)
[5] = read-out: CX-1 (IC50), Table III
[6] = 24 h treatment, colony count after 7 to 10 days

Compound | IC50 [1, 3] | IC50 [2, 4] | Selectivity (ratio of IC50 for CV-1 and IC50 for CX-1) ([2]; Table III) | IC50 [2, 5] | IC50 ([1]; read-out: CV-1 (IC50)) | CV-1 (IC50) [1, 6] | CX-1 (IC50) ([2]; Table III)
CCN1C(=CC=c2sc(=Cc3sc4c5ccccc5ccc4[n+]3CC)n(CC)c2=O)Sc2c1ccc1ccccc21 [Compound 7] | 4 µg/mL | 0.04 µg/mL | 100 | – | – | – | –
CCN1C(=CC=c2sc(=Cc3sc4ccc5ccccc5c4[n+]3CC)n(CC)c2=O)Sc2c1ccc1ccccc21 [Compound 20] | 6 µg/mL | – | 200 | 0.03 µg/mL | – | – | –
CCN1C(=CC=c2sc(=Cc3sc4ccc5ccccc5c4[n+]3CC)n(CC)c2=O)Sc2ccc3ccccc3c21 [Compound 30] | 5 µg/mL | 0.025 µg/mL | – | – | – | – | –
CCN1C(=CC=c2sc(=Cc3sc4c5ccccc5ccc4[n+]3CC)n(CCOC(C)=O)c2=O)Sc2ccc3ccccc3c21 [Compound 67] | – | 0.05 µg/mL | 200 | – | 10 µg/mL | – | –
CCN1C(=CC=c2sc(=Cc3sc4c5ccccc5ccc4[n+]3CC)n(-c3ccccc3)c2=O)Sc2ccc3ccccc3c21 [Compound 68] | 5 µg/mL | – | 100 | – | – | – | –
CCN1C(=CC=c2sc(=Cc3oc4ccc5ccccc5c4[n+]3CC)n(CC)c2=O)Sc2ccc3ccccc3c21 [Compound 70] | – | 0.04 µg/mL | 250 | – | 10 µg/mL | – | –
CCN1C(=CC=c2sc(=Cc3[se]c4ccccc4[n+]3CC)n(CC)c2=O)Sc2ccc3ccccc3c21 [Compound 74] | – | – | 100 | 0.1 µg/mL | 10 µg/mL | – | –
CCN1C(C)=CSC1=CC=c1sc(=Cc2sc3ccccc3[n+]2CC)n(CC)c1=O [Compound 92] | – | 0.05 µg/mL | 180 | – | – | 9 µg/mL | –
CCN1CCSC1=CC=c1sc(=Cc2sc3cc(OC)c(OC)cc3[n+]2CC)n(CC)c1=O [Compound 134] | – | – | 100 | 0.1 µg/mL | 10 µg/mL | – | –
CCN1CCSC1=CC=c1sc(=Cc2sc3ccccc3[n+]2CC)n(CC)c1=O [Compound 137] | 5 µg/mL | 0.05 µg/mL | 100 | – | – | – | –
CCN1CCSC1=CC=c1sc(=Cc2sc3c4ccccc4ccc3[n+]2CC)n(CC)c1=O [Compound 138] | – | 0.005 µg/mL | 160 | – | – | 0.8 µg/mL | –
CCN1CCSC1=CC=c1sc(=CC2=[N+](CC)CCS2)n(CC)c1=O [Compound 142] | 20 µg/mL | – | 200 | 0.1 µg/mL | – | – | –
CCN1CCSC1=CC=c1sc(=Cc2oc3ccc4ccccc4c3[n+]2CC)n(CC)c1=O [Compound 143] | 5 µg/mL | 0.05 µg/mL | 100 | – | – | – | –
CCN1CCSC1=CC=c1sc(=Cc2sc3c4ccccc4ccc3[n+]2CC)n(CC)c1=O [Compound 151] | – | – | 250 | – | – | 20 µg/mL | 0.08 µg/mL
CCN1CCSC1=CC=c1sc(=Cc2sc3cccc(OC)c3[n+]2CC)n(CC)c1=O [Compound 154] | 5 µg/mL | 0.04 µg/mL | 125 | – | – | – | –
CCN1CCSC1=CC=c1sc(=Cc2[se]c3ccccc3[n+]2CC)n(CC)c1=O [Compound 157] | – | – | 100 | 0.08 µg/mL | 8 µg/mL | – | –
CCn1c(=Cc2sc3cc(C)ccc3[n+]2CC)sc(=CC=C2N(C)c3ccccc3C2(C)C)c1=O [Compound 207] | 1.5 µg/mL | 0.01 µg/mL | 150 | – | – | – | –
CCOc1cc2c(cc1C)sc(C=c1sc(=CC=C3N(C)c4ccccc4C3(C)C)c(=O)n1CC)[n+]2CC [Compound 209] | 1 µg/mL | 0.01 µg/mL | 100 | – | – | – | –

Compound | IC50 [1, 3] | IC50 [2, 4] | Selectivity (ratio of IC50 for CV-1 and IC50 for CX-1) ([2]; Table III) | IC50 [2, 5] | IC50 ([1]; read-out: CV-1 (IC50)) | CV-1 (IC50) [1, 6] | CX-1 (IC50) ([2]; Table III)
CCN1C(=CC=c2sc(=Cc3sc4c5ccccc5ccc4[n+]3CC)n(CC)c2=O)C(C)(C)c2cc(Cl)ccc21 [Compound 220] | 5 µg/mL | 0.04 µg/mL | 125 | – | – | – | –
CCOc1ccc2c(c1)C=CC(=CC=c1sc(=Cc3sc4c5ccccc5ccc4[n+]3CC)n(CC)c1=O)N2CC [Compound 252] | > 20 µg/mL | – | > 200 | 0.1 µg/mL | – | – | –
CCN1C(=CC=c2sc(=Cc3sc4c5ccccc5ccc4[n+]3CC)n(CC)c2=O)C=Cc2cc(Cl)ccc21 [Compound 253] | > 20 µg/mL | 0.04 µg/mL | > 500 | – | – | – | –
CCN1C(=CC=c2sc(=Cc3sc4c5ccccc5ccc4[n+]3CC)n(CC)c2=O)C=Cc2cc(C)ccc21 [Compound 254] | – | – | 100 | 0.1 µg/mL | 10 µg/mL | – | –
CCN1C=CC(=CC=c2sc(=Cc3sc4ccc5ccccc5c4[n+]3CC)n(CC)c2=O)c2ccccc21 [Compound 307] | 3 µg/mL | 0.02 µg/mL | 150 | – | – | – | –
CCN1C=CC(=CC=c2sc(=Cc3sc4ccccc4[n+]3CC)n(CC)c2=O)C=C1 [Compound 317] | 20 µg/mL | – | 100 | 0.2 µg/mL | – | – | –
CCn1c(=Cc2sc3cc(Cl)c(Cl)cc3[n+]2CC)sc(=CC=C2Sc3ccc4ccccc4c3N2C)c1=O [Compound 383] | 20 µg/mL | – | 200 | 0.1 µg/mL | – | – | –
CCn1c(=Cc2cccc[n+]2CC)sc(=CC=C2Sc3ccc4ccccc4c3N2C)c1=O [Compound 385] | 20 µg/mL | – | 100 | 0.2 µg/mL | – | – | –
CCN1C(C)=CSC1=CC=c1sc(=C2CCC[n+]3c2sc2ccccc23)n(CC)c1=O [Compound 386] | – | – | 100 | 0.1 µg/mL | 10 µg/mL | – | –
CCN1C(C)=CSC1=CC=c1sc(=Cc2oc3cc(C)c(C)cc3[n+]2CC)n(CC)c1=O [Compound 388] | – | – | 261 | 0.03 µg/mL | 8 µg/mL | – | –
CCN1C(C)=CSC1=CC=c1sc(=C2CCC[n+]3c2sc2ccccc23)n(CC)c1=O [Compound 389] | 15 µg/mL | – | 188 | – | – | – | 0.08 µg/mL
CCN1CCSC1=CC=c1sc(=Cc2oc3c4ccccc4ccc3[n+]2CC)n(CC)c1=O [Compound 390] | 20 µg/mL | – | 250 | 0.08 µg/mL | – | – | –
CCN1CCSC1=CC=c1sc(=Cc2oc3cc(Cl)c(Cl)cc3[n+]2CC)n(CC)c1=O [Compound 391] | – | 0.07 µg/mL | 114 | – | 8 µg/mL | – | –
CCN1C(=CC=c2sc(=Cc3cc[n+](CC)c4ccccc34)n(CC)c2=O)C=Cc2ccccc21 [Compound 392] | – | – | 286 | – | – | 20 µg/mL | 0.01 µg/mL
CCN1C(=CC=c2sc(=Cc3cc[n+](CC)c4ccccc34)n(CC)c2=O)C=Cc2ccccc21 [Compound 393] | – | – | 400 | – | – | 20 µg/mL | 0.05 µg/mL
CCN1C(=CC=c2sc(=CC3=[N+](CC)CCS3)n(CC)c2=O)C=Cc2ccccc21 [Compound 394] | – | – | 125 | 0.08 µg/mL | 10 µg/mL | – | –
CCN1C(=CC=c2sc(=Cc3cc[n+](CC)c4ccccc34)n(CC)c2=O)C=Cc2cc(Cl)ccc21 [Compound 396] | – | – | 250 | – | – | – | 0.08 µg/mL

Source: US5861424A, “Composition and method for treating cancer” (priority 1995, dated 1999)
